# Test results: ChEMBL document CHEMBL1201862, “PubChem BioAssay data set” (2004)
# Calls of active or inactive are those of the source.
# Key:
# [1] = THP-1 cell cytotoxicity, dose response, cytotoxicity control for non-replicating M. tuberculosis project (AID 489025); format: functional
# [2] = Vero E6 cell cytotoxicity, dose response, cytotoxicity control for non-replicating M. tuberculosis project, secondary assay (AID 492998); format: functional, VeroE6; conditions: Vero C1008
# [3] = cells; format: functional
# [4] = biological target: Tumor necrosis factor (Homo sapiens, UniProt P01375); test: analog potency on TNFa NF-kB signaling – cell-based, revised, SAR follow-up (AID 2337); format: functional
# Tumor necrosis factor, sequence (P01375 whole entry, the tested form may be a part): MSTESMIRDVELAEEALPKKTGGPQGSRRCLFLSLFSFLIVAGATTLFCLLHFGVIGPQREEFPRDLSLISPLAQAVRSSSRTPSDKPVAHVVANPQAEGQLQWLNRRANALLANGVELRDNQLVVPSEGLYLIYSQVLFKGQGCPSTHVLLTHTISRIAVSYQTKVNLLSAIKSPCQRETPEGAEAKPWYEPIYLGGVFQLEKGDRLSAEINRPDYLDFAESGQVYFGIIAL
# [5] = biological target: T1, Nucleotide-binding oligomerization domain-containing protein 1 (Homo sapiens, UniProt Q9Y239); test: blockers of NOD1 pathway activity – revised, SAR follow-up (AID 2333); format: functional
# T1 sequence (Q9Y239 whole entry): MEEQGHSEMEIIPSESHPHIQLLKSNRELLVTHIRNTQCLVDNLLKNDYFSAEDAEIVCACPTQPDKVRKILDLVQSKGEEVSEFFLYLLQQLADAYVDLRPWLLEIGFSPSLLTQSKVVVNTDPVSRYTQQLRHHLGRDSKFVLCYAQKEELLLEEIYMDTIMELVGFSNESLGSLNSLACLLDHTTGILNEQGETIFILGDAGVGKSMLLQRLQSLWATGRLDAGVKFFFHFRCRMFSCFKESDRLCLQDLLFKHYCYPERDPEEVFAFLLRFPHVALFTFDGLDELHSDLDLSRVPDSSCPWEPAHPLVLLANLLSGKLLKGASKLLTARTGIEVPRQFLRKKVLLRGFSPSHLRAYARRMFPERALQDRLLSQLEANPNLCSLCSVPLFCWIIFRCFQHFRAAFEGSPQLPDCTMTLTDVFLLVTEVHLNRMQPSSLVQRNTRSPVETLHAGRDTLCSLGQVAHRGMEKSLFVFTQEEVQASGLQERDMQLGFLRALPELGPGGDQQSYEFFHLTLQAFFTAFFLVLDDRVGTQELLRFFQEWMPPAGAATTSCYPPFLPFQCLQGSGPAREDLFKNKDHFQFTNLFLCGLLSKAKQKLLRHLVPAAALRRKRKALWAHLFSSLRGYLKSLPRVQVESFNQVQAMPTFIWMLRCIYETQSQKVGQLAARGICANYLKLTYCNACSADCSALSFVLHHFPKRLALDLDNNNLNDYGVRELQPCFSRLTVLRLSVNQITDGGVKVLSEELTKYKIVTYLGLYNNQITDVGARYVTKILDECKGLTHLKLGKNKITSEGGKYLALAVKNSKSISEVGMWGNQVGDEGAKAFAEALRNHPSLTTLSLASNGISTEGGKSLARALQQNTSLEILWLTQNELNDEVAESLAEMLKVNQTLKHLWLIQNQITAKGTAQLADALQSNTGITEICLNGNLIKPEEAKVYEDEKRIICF
# [6] = biological target: Nucleotide-binding oligomerization domain-containing protein 2 (Homo sapiens, UniProt Q9HC29); test: PubChem AID 2334; format: functional
# Nucleotide-binding oligomerization domain-containing protein 2, sequence (Q9HC29 whole entry, the tested form may be a part): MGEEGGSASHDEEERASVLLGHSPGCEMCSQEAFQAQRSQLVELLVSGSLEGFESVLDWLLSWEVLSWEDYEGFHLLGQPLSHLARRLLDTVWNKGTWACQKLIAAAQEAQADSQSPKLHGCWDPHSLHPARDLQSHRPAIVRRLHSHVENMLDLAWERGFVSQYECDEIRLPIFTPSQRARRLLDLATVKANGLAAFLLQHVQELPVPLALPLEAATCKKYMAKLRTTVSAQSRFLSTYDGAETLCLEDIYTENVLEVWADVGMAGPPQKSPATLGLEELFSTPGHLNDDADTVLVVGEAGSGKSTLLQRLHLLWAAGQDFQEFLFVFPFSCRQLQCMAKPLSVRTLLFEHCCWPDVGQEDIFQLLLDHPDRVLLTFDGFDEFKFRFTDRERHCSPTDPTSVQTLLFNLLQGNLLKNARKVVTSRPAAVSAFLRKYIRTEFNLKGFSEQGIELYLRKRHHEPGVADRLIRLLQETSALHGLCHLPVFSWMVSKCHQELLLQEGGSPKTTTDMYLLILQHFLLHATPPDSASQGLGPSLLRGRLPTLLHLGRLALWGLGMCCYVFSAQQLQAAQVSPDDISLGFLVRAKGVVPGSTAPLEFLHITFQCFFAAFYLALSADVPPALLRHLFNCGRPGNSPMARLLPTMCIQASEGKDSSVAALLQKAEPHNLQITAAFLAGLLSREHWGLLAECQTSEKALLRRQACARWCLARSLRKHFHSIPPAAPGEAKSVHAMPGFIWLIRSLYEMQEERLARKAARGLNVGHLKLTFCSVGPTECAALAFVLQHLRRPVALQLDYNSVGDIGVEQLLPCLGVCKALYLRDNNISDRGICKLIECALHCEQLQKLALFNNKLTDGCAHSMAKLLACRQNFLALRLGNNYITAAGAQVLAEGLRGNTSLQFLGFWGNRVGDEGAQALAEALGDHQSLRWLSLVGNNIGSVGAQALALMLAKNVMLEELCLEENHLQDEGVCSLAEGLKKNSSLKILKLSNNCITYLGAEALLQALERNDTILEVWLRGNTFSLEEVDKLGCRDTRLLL
# [7] = test system: HEK293; test: cells; conditions: Homo sapiens;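 also: cells exposed to compound for 14 hours overnight before viability readout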
# [8] = biological target: Beta-galactosidase (Escherichia coli, UniProt Q8VNN2); test: detection-enzyme interference by beta-gal modulators – biochemical, E. coli enzyme, set 3, artefact control for CCR6 antagonist project, dose response (AID 504712); format: functional
# Beta-galactosidase, sequence (Q8VNN2 whole entry): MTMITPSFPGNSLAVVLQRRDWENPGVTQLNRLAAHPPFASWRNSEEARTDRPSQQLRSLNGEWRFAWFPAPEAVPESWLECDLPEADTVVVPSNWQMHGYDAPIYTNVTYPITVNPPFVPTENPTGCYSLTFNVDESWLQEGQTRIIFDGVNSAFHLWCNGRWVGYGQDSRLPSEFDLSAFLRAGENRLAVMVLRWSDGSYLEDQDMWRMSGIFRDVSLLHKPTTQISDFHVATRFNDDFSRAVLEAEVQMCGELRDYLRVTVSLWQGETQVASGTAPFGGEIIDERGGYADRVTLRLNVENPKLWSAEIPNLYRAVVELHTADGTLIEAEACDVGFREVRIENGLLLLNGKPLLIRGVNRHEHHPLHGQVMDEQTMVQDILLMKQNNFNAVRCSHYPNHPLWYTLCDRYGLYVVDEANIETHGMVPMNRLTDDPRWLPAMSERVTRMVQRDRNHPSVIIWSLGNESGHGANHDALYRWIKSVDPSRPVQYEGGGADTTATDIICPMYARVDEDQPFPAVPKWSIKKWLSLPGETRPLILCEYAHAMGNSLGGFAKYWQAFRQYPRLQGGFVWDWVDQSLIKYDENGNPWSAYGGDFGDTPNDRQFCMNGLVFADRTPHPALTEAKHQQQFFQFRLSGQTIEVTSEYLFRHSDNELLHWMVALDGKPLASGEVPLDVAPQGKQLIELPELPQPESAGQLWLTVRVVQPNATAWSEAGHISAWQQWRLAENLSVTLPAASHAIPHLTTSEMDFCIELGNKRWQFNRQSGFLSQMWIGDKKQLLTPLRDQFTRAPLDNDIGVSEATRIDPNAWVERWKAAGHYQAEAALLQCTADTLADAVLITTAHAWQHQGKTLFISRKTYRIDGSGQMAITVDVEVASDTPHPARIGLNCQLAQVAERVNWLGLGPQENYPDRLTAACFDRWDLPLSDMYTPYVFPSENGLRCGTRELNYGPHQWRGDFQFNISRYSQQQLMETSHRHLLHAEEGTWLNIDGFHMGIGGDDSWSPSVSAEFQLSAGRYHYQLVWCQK
# [9] = biological target: Genome polyprotein (dengue virus type 2, UniProt P29990); test: flavivirus cap methylation enzyme inhibition – biochemical, confirmation dose response, primary screen (AID 588689); format: functional
# Genome polyprotein, sequence (P29990 2492-3391 limits assumed): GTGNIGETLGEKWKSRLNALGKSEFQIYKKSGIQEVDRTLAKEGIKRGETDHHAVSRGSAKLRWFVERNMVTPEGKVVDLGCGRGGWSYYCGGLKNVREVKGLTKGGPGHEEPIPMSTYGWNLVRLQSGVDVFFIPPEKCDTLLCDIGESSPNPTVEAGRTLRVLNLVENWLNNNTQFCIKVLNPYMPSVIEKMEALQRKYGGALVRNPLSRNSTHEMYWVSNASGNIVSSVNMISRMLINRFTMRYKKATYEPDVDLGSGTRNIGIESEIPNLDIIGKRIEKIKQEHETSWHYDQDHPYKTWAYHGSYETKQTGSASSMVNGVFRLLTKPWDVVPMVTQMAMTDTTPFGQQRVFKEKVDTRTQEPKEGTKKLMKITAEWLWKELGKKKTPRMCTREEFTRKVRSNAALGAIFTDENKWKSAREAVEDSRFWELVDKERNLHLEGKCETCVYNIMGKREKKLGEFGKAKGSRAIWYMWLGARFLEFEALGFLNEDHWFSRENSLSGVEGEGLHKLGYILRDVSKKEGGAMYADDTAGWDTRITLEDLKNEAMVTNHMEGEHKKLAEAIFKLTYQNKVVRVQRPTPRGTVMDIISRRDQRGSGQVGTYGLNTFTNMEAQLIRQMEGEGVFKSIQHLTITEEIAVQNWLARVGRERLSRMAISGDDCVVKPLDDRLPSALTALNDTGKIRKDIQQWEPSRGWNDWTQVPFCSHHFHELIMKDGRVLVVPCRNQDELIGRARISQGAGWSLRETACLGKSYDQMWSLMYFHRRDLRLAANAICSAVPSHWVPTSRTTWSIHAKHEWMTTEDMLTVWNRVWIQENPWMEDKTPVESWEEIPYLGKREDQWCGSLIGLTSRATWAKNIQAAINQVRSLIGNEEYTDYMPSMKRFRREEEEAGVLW
# [10] = biological target: T2, Carboxy-terminal domain RNA polymerase II polypeptide A small phosphatase 1 (Homo sapiens, UniProt Q9GZU7); test: CTDSP1 inhibitors, concentration-response, biochemical, absorbance readout, ultra-high-throughput screen actives (AID 540297); format: functional
# T2 sequence (Q9GZU7 whole entry): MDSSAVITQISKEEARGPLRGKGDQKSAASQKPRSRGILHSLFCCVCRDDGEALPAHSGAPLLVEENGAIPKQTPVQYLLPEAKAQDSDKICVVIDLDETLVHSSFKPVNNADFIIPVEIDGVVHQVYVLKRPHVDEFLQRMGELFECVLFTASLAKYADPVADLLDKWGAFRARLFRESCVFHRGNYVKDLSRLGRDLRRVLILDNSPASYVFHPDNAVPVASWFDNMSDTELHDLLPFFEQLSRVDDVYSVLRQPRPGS
# [11] = biological target: Large T antigen (Simian virus 40, UniProt P03070); format: functional, Betapolyomavirus macacae;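 also: Confirmatory-stage PubChem screen for compounds that inhibit SV40 T antigen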
# Large T antigen, sequence (P03070 whole entry, the tested form may be a part): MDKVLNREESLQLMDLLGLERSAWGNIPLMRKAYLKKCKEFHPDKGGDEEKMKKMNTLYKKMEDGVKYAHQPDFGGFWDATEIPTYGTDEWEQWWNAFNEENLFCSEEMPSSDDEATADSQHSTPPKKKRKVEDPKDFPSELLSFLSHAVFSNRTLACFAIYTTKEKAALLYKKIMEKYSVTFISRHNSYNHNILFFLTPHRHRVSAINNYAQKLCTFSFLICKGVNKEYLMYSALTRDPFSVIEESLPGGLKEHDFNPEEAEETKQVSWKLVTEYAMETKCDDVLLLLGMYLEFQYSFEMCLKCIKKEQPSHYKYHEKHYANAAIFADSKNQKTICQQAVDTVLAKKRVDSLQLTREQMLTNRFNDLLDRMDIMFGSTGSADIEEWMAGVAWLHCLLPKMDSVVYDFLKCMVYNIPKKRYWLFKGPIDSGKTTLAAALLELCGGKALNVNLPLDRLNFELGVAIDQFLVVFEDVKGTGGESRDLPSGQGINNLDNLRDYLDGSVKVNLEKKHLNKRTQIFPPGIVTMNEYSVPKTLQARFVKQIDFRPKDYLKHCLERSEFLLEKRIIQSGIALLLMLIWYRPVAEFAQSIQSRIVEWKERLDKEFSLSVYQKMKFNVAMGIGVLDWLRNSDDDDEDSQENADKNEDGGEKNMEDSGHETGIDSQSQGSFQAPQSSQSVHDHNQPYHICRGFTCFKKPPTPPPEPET
# [12] = biological target: T3, RNA-binding protein pos-1 (Caenorhabditis elegans, UniProt G5EF15); test: disruptors of C. elegans POS-1 RNA interaction – biochemical, fluorescence polarization, dose response (AID 1964);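 also: purified POS-1 fused to maltose binding protein made in E. coli; potency of compounds blocking POS-1 binding to fluorescent RNA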
# T3 sequence (G5EF15 whole entry): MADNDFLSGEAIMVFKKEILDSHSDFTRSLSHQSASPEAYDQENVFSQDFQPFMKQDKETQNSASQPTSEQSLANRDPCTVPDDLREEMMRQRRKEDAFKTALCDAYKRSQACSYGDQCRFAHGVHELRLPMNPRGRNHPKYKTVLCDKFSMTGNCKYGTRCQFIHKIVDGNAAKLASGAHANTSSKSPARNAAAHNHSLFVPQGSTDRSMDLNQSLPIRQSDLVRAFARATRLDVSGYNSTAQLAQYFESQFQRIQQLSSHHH
# [13] = biological target: T4, Zinc finger protein mex-5 (Caenorhabditis elegans, UniProt Q9XUB2); test: potency of MEX-5 RNA-binding blockers – biochemical, C. elegans, fluorescence polarization, dose response (AID 1960)
# T4 sequence (Q9XUB2 whole entry): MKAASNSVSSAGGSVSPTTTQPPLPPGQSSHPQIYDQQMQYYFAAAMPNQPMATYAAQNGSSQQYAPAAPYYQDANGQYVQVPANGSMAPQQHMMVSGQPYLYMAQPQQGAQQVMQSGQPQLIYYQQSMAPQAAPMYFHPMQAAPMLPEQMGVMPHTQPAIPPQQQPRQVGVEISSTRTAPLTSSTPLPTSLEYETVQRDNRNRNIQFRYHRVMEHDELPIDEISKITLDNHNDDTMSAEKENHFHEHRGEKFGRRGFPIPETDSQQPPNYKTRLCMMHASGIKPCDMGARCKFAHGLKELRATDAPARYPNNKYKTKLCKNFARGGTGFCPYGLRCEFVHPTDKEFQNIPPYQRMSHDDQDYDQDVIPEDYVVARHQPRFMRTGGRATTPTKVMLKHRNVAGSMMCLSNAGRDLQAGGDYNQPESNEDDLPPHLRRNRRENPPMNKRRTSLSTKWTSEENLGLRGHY
# [14] = HepG2 cell cytotoxicity, dose response, cytotoxicity control for non-replicating M. tuberculosis project (AID 489018); format: functional; conditions: Mycobacterium tuberculosis
# [15] = biological target: Photoreceptor-specific nuclear receptor (Homo sapiens, UniProt Q9Y5X4); format: functional;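 also: potency for compounds that break the NR2E3 corepressor complex and count as activators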
# Photoreceptor-specific nuclear receptor, sequence (Q9Y5X4 whole entry): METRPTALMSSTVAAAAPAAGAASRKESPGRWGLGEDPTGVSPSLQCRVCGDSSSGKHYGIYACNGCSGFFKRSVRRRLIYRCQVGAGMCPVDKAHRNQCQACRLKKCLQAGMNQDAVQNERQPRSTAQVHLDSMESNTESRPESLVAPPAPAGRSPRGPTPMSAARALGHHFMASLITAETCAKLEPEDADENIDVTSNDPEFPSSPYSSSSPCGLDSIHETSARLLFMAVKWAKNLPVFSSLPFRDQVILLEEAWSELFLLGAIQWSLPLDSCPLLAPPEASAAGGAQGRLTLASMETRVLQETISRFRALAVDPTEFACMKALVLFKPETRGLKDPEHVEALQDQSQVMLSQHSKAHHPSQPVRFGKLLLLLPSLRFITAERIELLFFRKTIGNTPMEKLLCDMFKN
# [16] = cells; format: functional, cell-based
# [17] = cells; format: functional, cell-based; remark: listed apart in the source
# [18] = biological target: Peroxisome proliferator-activated receptor gamma/Nuclear receptor corepressor 2 (Homo sapiens, UniProt P37231+Q9Y618); format: functional
# [19] = biological target: T5, Bcl-2-like protein 10 (Homo sapiens, UniProt Q9HD36); test: Bcl-B/TR3 peptide binding disruption – biochemical, fluorescence polarization, FITC-TR3 peptide, selectivity assay for Bfl-1 inhibitor project, primary screen (AID 748);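 also: fluorescence polarization from a fluorescein-labelled TR3 peptide binding purified Bcl-B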
# T5 sequence (Q9HD36 whole entry): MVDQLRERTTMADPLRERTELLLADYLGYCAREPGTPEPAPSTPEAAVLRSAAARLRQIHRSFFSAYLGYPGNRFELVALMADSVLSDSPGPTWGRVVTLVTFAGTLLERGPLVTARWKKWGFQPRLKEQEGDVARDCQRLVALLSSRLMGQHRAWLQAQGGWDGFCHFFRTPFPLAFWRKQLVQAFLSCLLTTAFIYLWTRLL
# [20] = A cytotoxicity screen of small molecule inhibitors of the PhoP region in Salmonella typhi identified in the primary screen. [Related pubchem assays: 1850, 1864, 1985 ]; format: functional
# [21] = Trypanosoma cruzi growth suppression in host cells – NIH3T3 host cells, beta-gal luminescence, confirmation (AID 2044); format: functional, cell-based;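 also: intracellular parasites grown in NIH/3T3 mouse fibroblasts as host cells; luminescent beta-galactosidase reporter signal from transgenic T. cruzi replicating inside host cells; inhibitors lower the luminescence signal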
# [22] = NIH3T3 cell viability loss – ATP luminescence, mouse fibroblasts, counter-screen, dose response (AID 2010); format: functional, cell-based;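 also: cells exposed to compound for about 90 hours before reading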
# [23] = reduction of Shn3 3'UTR-driven luciferase in osteoblasts – cell-based, Clone20 osteoblasts, firefly luciferase, cherry-picked, dose response (AID 624132); format: functional;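 also: firefly luciferase luminescence from reporter carrying the Shn3 3'UTR in osteoblasts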
# [24] = loss of viability in HepG2 cells – cell-based, CellTiter-Glo, cherry-picked, cytotoxicity control for Shn3 inhibitor project, dose response (AID 624134); format: functional
# [25] = non-specific 3'UTR reporter inhibition in Clone20-Shn3RL – cell-based, Renilla luciferase, cherry-picked, counter-screen for Shn3 inhibitor project, dose response (AID 624133); format: functional
# [26] = biological target: T6, X-box-binding protein 1 (Homo sapiens, UniProt P17861); format: functional, Cricetulus griseus;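 also: confirmatory dose-response counter-screen serving a CHOP assay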
# T6 sequence (P17861 whole entry): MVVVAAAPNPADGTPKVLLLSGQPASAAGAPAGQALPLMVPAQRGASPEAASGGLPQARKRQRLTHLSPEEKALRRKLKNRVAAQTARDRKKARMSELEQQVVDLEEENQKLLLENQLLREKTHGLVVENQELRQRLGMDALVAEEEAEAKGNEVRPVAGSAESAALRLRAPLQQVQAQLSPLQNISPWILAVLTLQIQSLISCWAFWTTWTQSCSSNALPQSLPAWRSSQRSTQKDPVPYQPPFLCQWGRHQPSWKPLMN
# [27] = biological target: Peroxisome proliferator-activated receptor gamma/Nuclear receptor coactivator 2 (Homo sapiens, UniProt P37231); format: functional;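 also: agonist potency for raising coactivator recruitment to the receptor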
# [28] = biological target: Peroxisome proliferator-activated receptor gamma/Nuclear receptor coactivator 1 (Homo sapiens, UniProt P37231); format: functional;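 also: agonist potency as compounds enhance coactivator SRC-1 recruitment to PPARgamma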
# [29] = biological target: Peroxisome proliferator-activated receptor gamma/Nuclear receptor coactivator 3 (Homo sapiens, UniProt P37231); format: functional;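 also: agonist potency for raising coactivator recruitment to the receptor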
structure (smiles),measurement,setting,value
C/C(=N\Nc1nc2ccccc2[nH]1)c1cc2ccccc2o1,CC50,[1],> 40 µM (active)
same,CC50,[2],> 20 µM (active)
same,IC50,[3],1.28 µM (active)
CC1(C)Cc2c(sc(NC(=O)C(=O)N3CCCCC3)c2C(=O)O)CO1,IC50,[4],> 20 µM (inactive)
same,IC50,[5],> 20 µM (inactive)
same,IC50,[6],> 20 µM (inactive)
same,IC50,[7],> 20 µM (inactive)
O=C(CN1C(=O)/C(=C2/SC(=S)N(CCS(=O)(=O)O)C2=O)c2ccccc21)Nc1cccc(C(F)(F)F)c1,IC50,[8],> 66.6 µM (inactive)
same,IC50,[9],35.3 µM (active)
same,IC50,[10],2.41 µM (active)
Nc1ccc(OCC(O)C[n+]2ccc(CCS(=O)(=O)[O-])cc2)cc1 (stereo not drawn),IC50,[11],17.9 µM (active)
Cc1cnc(C(=O)NNC(=O)c2ccc(Br)cc2)cn1,EC50,[12],> 300 µM (not active)
same,EC50,[13],9.68 µM (active)
same,CC50,[1],26.3 µM (active)
same,CC50,[14],> 20 µM (active)
same,CC50,[2],14.6 µM (active)
same,IC50,[3],23.2 µM (active)
CC(=O)Nc1nc2ccccc2n1S(=O)(=O)c1ccc(Cl)cc1,IC50,[4],> 20 µM (inactive)
same,IC50,[5],4.56 µM (active)
same,IC50,[6],> 20 µM (inactive)
same,IC50,[7],> 20 µM (inactive)
CC1(C)Cc2c(sc(NC(=O)c3ccccc3)c2C(=O)O)CO1,IC50,[4],> 20 µM (inactive)
same,IC50,[5],> 20 µM (inactive)
same,IC50,[6],> 20 µM (inactive)
same,IC50,[7],> 20 µM (inactive)
COc1cc(/C=N/NC(=O)NC2CCCCC2)ccc1O,IC50,[11],7.16 µM (active)
COc1cccc(CNC(=O)CCCn2c(=S)[nH]c3cc4c(cc3c2=O)OCO4)c1,IC50,[15],> 39.8 µM (not active)
same,EC50,[16],> 350 µM (not active)
same,EC50,[17],54.4 µM (active)
same,IC50,[18],4.26 µM (active)
C=CCn1c(SCc2cc(=O)n3ccsc3n2)nnc1C1CCCCC1,IC50,[19],61.5 µM (inactive)
O=c1c2cc(N3CCOCC3)ccc2[nH]c(=S)n1CCCN1CCCCCC1,IC50,[19],88 µM (inactive)
CC(C)(C)c1ccc(NC(=O)COc2ccc(-n3ccnc3)cc2)cc1,EC50,[20],> 50 µM (active)
same,EC50,[21],1.27 µM (active)
same,EC50,[22],> 60 µM (not active)
same,CC50,[14],> 20 µM (active)
same,IC50,[3],26.1 µM (active)
same,AC50,[23],5.27 µM (active)
same,AC50,[24],43.1 µM (active)
same,AC50,[25],10 µM (active)
O=[N+]([O-])c1ccc(-c2nn(-c3ccccc3)cc2/C=N/n2c(S)nnc2-c2cccs2)cc1,Absolute IC50 (XBP1),[26],10 µM
CC1=CC(C)(C)N(C(=O)c2ccc(F)cc2)c2cc3c(cc21)OCO3,Absolute IC50 (XBP1),[26],10 µM
CCc1cc2cc(C(=O)Nc3ccc(C)cc3)sc2s1,EC50,[27],28.1 µM (not active)
same,EC50,[28],50.4 µM (not active)
same,IC50,[15],> 39.8 µM (not active)
same,EC50,[29],50.8 µM (not active)
same,IC50,[18],2.25 µM (active)
C/C(=N/NC(=S)Nc1ccccc1)c1ccc2c(c1)OCO2,IC50,[8],> 66.6 µM (inactive)
